According to ChEMBL document CHEMBL3871306, “Design and synthesis of novel N-sulfonyl-2-indoles that behave as 5-HT6 receptor ligands with significant selectivity for D3 over D2 receptors” (Bioorg Med Chem, 2017):

Experiments:
D(2) dopamine receptor [1] = target: T1, D(2) dopamine receptor (Homo sapiens, UniProt P14416); experiment: Displacement of [3H]-methyl-spiperone from human dopamine D2L receptor expressed in HEK293 cell membranes after 1 hr by radioligand binding assay
D(3) dopamine receptor = D(3) dopamine receptor (Homo sapiens, UniProt P35462); experiment: Displacement of [3H]-methyl-spiperone from human dopamine D3 receptor expressed in CHO cell membranes after 1 hr by liquid scintillation counting
D(3) dopamine receptor, sequence (P35462 whole entry): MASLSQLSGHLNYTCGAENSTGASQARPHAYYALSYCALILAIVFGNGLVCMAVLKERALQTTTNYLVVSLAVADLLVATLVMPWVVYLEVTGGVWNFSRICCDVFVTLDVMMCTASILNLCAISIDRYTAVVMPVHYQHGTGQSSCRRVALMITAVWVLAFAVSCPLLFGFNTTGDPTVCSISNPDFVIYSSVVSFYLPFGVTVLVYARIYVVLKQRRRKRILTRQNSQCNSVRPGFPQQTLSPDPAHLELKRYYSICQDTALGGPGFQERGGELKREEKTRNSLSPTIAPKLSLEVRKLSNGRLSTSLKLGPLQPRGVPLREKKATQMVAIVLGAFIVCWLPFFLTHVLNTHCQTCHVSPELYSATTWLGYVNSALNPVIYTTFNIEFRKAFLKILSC

[2] = target: 5-hydroxytryptamine receptor 6 (Homo sapiens, UniProt P50406); experiment: Displacement of [3H]-LSD from human 5-HT6R expressed in CHO cell membranes by radioligand binding assay
5-hydroxytryptamine receptor 6, sequence (P50406 whole entry): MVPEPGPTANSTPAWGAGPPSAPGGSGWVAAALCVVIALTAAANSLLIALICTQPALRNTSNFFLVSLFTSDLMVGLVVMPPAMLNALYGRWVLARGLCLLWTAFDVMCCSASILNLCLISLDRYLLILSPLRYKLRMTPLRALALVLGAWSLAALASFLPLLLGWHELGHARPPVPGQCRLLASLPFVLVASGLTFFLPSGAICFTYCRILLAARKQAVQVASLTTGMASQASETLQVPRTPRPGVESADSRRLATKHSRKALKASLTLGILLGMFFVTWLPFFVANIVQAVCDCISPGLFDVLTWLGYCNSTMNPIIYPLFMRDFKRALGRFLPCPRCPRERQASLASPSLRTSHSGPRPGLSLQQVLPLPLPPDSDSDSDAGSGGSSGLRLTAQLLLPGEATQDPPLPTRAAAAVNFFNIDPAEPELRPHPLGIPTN

D(2) dopamine receptor [3] = target: T1, D(2) dopamine receptor; experiment: Displacement of [3H]-methyl-spiperone from human dopamine D2L receptor expressed in HEK293 cell membranes at […] after 1 hr by radioligand binding assay

T1 sequence (P14416 whole entry): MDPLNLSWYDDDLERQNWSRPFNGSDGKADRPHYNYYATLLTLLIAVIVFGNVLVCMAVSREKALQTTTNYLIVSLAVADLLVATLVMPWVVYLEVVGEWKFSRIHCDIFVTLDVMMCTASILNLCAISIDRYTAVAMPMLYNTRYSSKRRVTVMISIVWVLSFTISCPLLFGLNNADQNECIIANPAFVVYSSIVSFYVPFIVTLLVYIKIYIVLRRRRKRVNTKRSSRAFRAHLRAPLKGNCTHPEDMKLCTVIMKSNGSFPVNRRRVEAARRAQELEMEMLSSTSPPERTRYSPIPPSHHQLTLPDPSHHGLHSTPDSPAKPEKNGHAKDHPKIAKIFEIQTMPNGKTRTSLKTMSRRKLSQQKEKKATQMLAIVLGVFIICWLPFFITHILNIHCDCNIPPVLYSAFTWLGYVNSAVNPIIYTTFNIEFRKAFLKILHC

Row | SMILES | Ki (D(2) dopamine receptor [1]) [nM] | Ki (D(3) dopamine receptor) [nM] | Ki [2] [nM] | inhibition (D(2) dopamine receptor [3]) [%]
1 | CN[C@@H]1c2ccc3c(ccn3S(=O)(=O)c3ccccc3)c2[C@@H]1CCO | > 10000 | > 10000 | 25.1 | –
2 | CC(=O)Nc1ccc(CCN(C)CC2Cc3ccc4c(ccn4S(=O)(=O)c4ccccc4)c32)cc1 (centres undefined) | 251 | 501 | 79.4 | –
3 | CNCC1Cc2ccc3c(ccn3S(=O)(=O)c3ccccc3)c21 (centres undefined) | 2000 | 1260 | 1.58 | –
4 | O=S(=O)(c1ccccc1)n1ccc2cc3c(cc21)[C@H]1CCNCC[C@@H]31 | > 10000 | 3160 | 158 | –
5 | CNCC1Cc2ccc3c(ccn3S(=O)(=O)c3cccc4ccccc34)c21 (centres undefined) | 1000 | 251 | 1 | –
6 | CNCC1Cc2cc3ccn(S(=O)(=O)c4cccc5ccccc45)c3cc21 (centres undefined) | 2510 | 794 | 1 | –
7 | O=S(=O)(c1ccccc1)n1ccc2c3c(ccc21)[C@H]1CCNCC[C@@H]31 (relative stereo) | 794 | 1000 | 50.1 | –
8 | CN[C@@H]1c2cc3ccn(S(=O)(=O)c4ccccc4)c3cc2[C@H]1CCO (relative stereo) | 15800 | 2000 | 3.98 | –
9 | CN[C@H]1c2c(ccc3c2ccn3S(=O)(=O)c2ccccc2)[C@H]1CCO (relative stereo) | > 10000 | > 10000 | 7.94 | –
10 | CN(C)[C@H]1c2cc3ccn(S(=O)(=O)c4ccccc4)c3cc2[C@H]1CCO (relative stereo) | > 10000 | 398 | 39.8 | –
11 | CN(C)[C@H]1c2cc3c(ccn3S(=O)(=O)c3ccccc3)cc2[C@@H]1CCO (relative stereo) | – | 126 | 316 | 19
12 | CN(C)[C@@H]1c2cc3ccn(S(=O)(=O)c4ccccc4)c3cc2[C@H]1CCO (relative stereo) | – | 1260 | 12.6 | 22
13 | CN(C)[C@@H]1c2cc3c(ccn3S(=O)(=O)c3ccccc3)cc2[C@@H]1CCO (relative stereo) | – | 631 | 316 | 20
14 | CN[C@H]1c2cc3ccn(S(=O)(=O)c4ccccc4)c3cc2[C@H]1CCO (relative stereo) | – | 1260 | 10 | 30
15 | CN[C@H]1c2cc3c(ccn3S(=O)(=O)c3ccccc3)cc2[C@@H]1CCO (relative stereo) | 6310 | 251 | 158 | –
16 | CN[C@H]1c2c(ccc3c2ccn3S(=O)(=O)c2ccccc2)[C@@H]1CCO (relative stereo) | 15800 | 1260 | 200 | –
17 | CN[C@@H]1c2cc3c(ccn3S(=O)(=O)c3ccccc3)cc2[C@@H]1CCO (relative stereo) | > 10000 | 1000 | 126 | –
18 | CN[C@H]1c2ccc3c(ccn3S(=O)(=O)c3ccccc3)c2[C@@H]1CCO (relative stereo) | > 10000 | 1260 | 158 | –
